Here are results for 23 molecules from US11773078B2, “Furin inhibitors” (Glaxosmithkline Intellectual Property Development Limited, priority 2018, dated 2023).

Experiment [1] has as its target T1, Furin (108-574-Tev-Flag-His) enzyme (Homo sapiens, UniProt P09958).
T1 construct: Furin (108-574-Tev-Flag-His) enzyme was expressed and purified from CHO cells; TEV cleavage site (C); FLAG (C); His (C); made in house; host or cells: CHO cells
Nature of the experiment: Furin enzyme assay. The class given is biochemical. The following applies: for IC50: read-out: furin enzyme pIC50 (converted). The gist of the method: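 CHO-expressed, purified furin construct at 40 pM in 100 mM HEPES pH7.5, 1 mM CaCl2, 0.005% Triton X-100. Eleven-point 1:3 series, 0.00017–10 μM final, incubated 2 h at room temperature and read on Envision. pXC50 from four-parameter fit.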

Experiment [2] deals with T2, furin (endogenous protease) in U20S cells (Homo sapiens, UniProt P09958).
T2 construct: the endogenous protease cleaves GFP; endogenous in cells; host or cells: U2OS cells transduced with a BacMam reporter
Nature of the experiment: Furin cell-based assay (image-based, Golgi-targeted GFP with BMP10 furin/PCSK cleavage site).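 Note: Read-out is mean GFP fluorescence of Golgi puncta per cell by high-content imaging, retained when furin inhibited, over an eleven-point 0.00017–10 µM series, four-parameter fit.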 As to conditions: 24-hour incubation, read-out: furin golgi cell pXC50 (converted).

The structures appear in SMILES notation. Structures can show the parent of a compound that is named as a salt.

T2 sequence (P09958 108-794): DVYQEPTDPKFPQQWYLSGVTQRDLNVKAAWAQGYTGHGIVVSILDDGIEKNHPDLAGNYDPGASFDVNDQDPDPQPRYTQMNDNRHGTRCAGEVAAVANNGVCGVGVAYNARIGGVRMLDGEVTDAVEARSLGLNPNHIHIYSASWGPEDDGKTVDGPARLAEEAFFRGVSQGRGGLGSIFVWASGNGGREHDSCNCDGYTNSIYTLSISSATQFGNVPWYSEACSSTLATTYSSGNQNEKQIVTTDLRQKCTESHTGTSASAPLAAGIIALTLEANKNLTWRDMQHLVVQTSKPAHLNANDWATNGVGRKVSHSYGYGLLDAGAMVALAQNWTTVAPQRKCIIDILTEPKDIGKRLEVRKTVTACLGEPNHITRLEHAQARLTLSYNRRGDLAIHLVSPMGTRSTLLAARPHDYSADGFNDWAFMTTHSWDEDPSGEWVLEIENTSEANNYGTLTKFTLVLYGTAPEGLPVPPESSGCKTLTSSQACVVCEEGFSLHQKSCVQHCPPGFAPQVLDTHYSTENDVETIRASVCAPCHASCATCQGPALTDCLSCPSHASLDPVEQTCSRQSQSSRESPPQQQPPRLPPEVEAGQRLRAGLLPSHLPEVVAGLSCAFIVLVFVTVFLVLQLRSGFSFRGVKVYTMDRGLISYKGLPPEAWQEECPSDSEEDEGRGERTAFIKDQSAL
T1 sequence (P09958 108-574): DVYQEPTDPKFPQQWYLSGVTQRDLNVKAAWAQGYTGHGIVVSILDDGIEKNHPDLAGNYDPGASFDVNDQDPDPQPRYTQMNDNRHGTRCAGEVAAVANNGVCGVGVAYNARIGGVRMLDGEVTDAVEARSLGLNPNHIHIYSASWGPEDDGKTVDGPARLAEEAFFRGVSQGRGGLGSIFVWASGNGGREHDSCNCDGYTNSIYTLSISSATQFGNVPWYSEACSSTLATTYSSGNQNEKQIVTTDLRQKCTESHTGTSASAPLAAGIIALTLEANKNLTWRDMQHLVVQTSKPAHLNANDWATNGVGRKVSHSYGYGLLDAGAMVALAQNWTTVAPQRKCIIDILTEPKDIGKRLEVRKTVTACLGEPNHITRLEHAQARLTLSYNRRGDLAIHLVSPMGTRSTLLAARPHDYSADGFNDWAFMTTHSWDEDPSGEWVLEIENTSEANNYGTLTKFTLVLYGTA

`NC1CCN(c2ncc(Oc3cc(CN4CCC(CC(=O)O)CC4)cc(-c4cc(Cl)cc(Cl)c4)n3)cn2)CC1` [Example 158, 2-(1-((2-((2-(4-Aminopiperidin-1-yl)pyrimidin-5-yl)oxy)-6-(3,5-dichlorophenyl)pyridin-4-yl)methyl)piperidin-4-yl)acetic acid]: the “furin enzyme pIC50” value in experiment [1] is on record as 8.8. Also, the EC50 in experiment [2] is 79.4 nM.

Regarding `CC(CCN(C)C)N1CCN(c2ncc(Oc3cc(CN4CCC(CC(=O)O)CC4)cc(-c4cc(Cl)cc(Cl)c4)n3)cn2)CC1` (stereo not shown) [Example 240, 2-(1-((2-(3,5-Dichlorophenyl)-6-((2-(4-(4-(dimethylamino)butan-2-yl)piperazin-1-yl)pyrimidin-5-yl)oxy)pyridin-4-yl)methyl)piperidin-4-yl)acetic acid], in experiment [1], the “furin enzyme pIC50” value stood at 8.4. In experiment [2], the EC50 is 6.31 nM.

For `NC(=O)CC1CCN(Cc2cc(Oc3cnc(N4CCNCC4)nc3)nc(-c3cc(Cl)cc(Cl)c3)c2)CC1` [Example 86, 2-(1-((2-(3,5-Dichlorophenyl)-6-((2-(piperazin-1-yl)pyrimidin-5-yl)oxy)pyridine-4-yl)methyl)piperidin-4-yl)acetamide, 4 hydrochloride], the “furin enzyme pIC50” value in experiment [1] was 8.9. For the same molecule, the EC50 in experiment [2] was 10 nM.

Regarding `CNC(=O)NCC1CCN(Cc2cc(Oc3cnc(N4CCN(CCO)CC4)nc3)nc(-c3cc(Cl)cc(Cl)c3)c2)CC1` [Example 47, 1-((1-((2-(3,5-Dichlorophenyl)-6-((2-(4-(2-hydroxyethyl)piperazin-1-yl)pyrimidin-5-yl)oxy)pyridin-4-yl)methyl)piperidin-4-yl)methyl)-3-methylurea, 4 hydrochloride], the “furin enzyme pIC50” value in experiment [1] was 8.9. Further, the EC50 in experiment [2] is 3.98 nM.

For `CN1CCN(c2ncc(Oc3cc(CN4CCO[C@H](CCO)CC4)cc(-c4cc(Cl)cc(Cl)c4)n3)cn2)CC1` [Example 153, (S)-2-(4-((2-(3,5-dichlorophenyl)-6-((2-(4-methylpiperazin-1-yl)pyrimidin-5-yl)oxy)pyridin-4-yl)methyl)-1,4-oxazepan-7-yl)ethanol], the “furin enzyme pIC50” value in experiment [1] worked out at 7.9. Moreover, in experiment [2], the EC50 is 15.8 nM.

Regarding `CNC(=O)NCC1CCN(Cc2cc(Oc3cnc(N4CCN(CCCO)CC4)nc3)nc(-c3cc(Cl)cc(Cl)c3)c2)CC1` [Example 171, 1-((1-((2-(3,5-dichlorophenyl)-6-((2-(4-(3-hydroxypropyl)piperazin-1-yl)pyrimidin-5-yl)oxy)pyridin-4-yl)methyl)piperidin-4-yl)methyl)-3-methylurea], the “furin enzyme pIC50” value in experiment [1] came out at 10.7. Moreover, the EC50 in experiment [2] was 2 nM.

Consider `CNC(=O)NCC1CCN(Cc2cc(Oc3cnc(N4CCN(CC(C)C(N)=O)CC4)nc3)nc(-c3cc(Cl)cc(Cl)c3)c2)CC1` (stereo not shown) [Example 291, 3-(4-(5-((6-(3,5-dichlorophenyl)-4-((4-((3-methylureido)methyl)piperidin-1-yl)methyl)pyridin-2-yl)oxy)pyrimidin-2-yl)piperazin-1-yl)-2-methylpropanamide], for which the “furin enzyme pIC50” value in experiment [1] is 10.7. In experiment [2], the EC50 is 7.94 nM.

For `CN1CCN(c2cnc(Oc3cc(CN4CCC(CCO)CC4)cc(-c4cc(Cl)cc(Cl)c4)n3)cn2)CC1` [Example 350, 2-(1-((2-(3,5-dichlorophenyl)-6-((5-(4-methylpiperazin-1-yl)pyrazin-2-yl)oxy)pyridin-4-yl)methyl)piperidin-4-yl)ethanol], the “furin enzyme pIC50” value in experiment [1] was 8.6. Besides, in experiment [2], the EC50 was 1.26 nM.

For the molecule `O=C(O)CC1CCN(Cc2cc(Oc3cnc(N4CCN(C5CC(O)C5)CC4)nc3)nc(-c3cc(Cl)cc(Cl)c3)c2)CC1` (stereo not shown) [Example 22, 2-(1-((2-(3,5-dichlorophenyl)-6-((2-(4-(3-hydroxycyclobutyl)piperazin-1-yl)pyrimidin-5-yl)oxy)pyridin-4-yl)methyl)piperidin-4-yl)acetic acid], the “furin enzyme pIC50” value in experiment [1] is given as 9.5. Further, the EC50 in experiment [2] is 10 nM.

For `CC(=O)NCC1CCN(Cc2cc(Oc3ccc(N4CCN(CCN(C)S(C)(=O)=O)CC4)nc3)nc(-c3cc(Cl)cc(Cl)c3)c2)CC1` [Example 32, N-((1-((2-(3,5-dichlorophenyl)-6-((6-(4-(2-(N-methylmethylsulfonamido)ethyl)piperazin-1-yl)pyridin-3-yl)oxy)pyridin-4-yl)methyl)piperidin-4-yl)methyl)acetamide], the “furin enzyme pIC50” value in experiment [1] was 8.7. The EC50 in experiment [2] was 10 nM.

On to `CC(=O)CC1CCN(Cc2cc(Oc3cnc(N4CCN(C)CC4)nc3)nc(-c3cc(Cl)cc(Cl)c3)c2)CC1` [Example 155, 1-(1-((2-(3,5-dichlorophenyl)-6-((2-(4-methylpiperazin-1-yl)pyrimidin-5-yl)oxy)pyridin-4-yl)methyl)piperidin-4-yl)propan-2-one], for which the “furin enzyme pIC50” value in experiment [1] amounted to 8.1. Besides, the EC50 in experiment [2] was 15.8 nM.

Consider `CC(=O)NCC1CCN(Cc2cc(Oc3cnc(N4CCN(C)CC4)nc3)cc(-c3cc(Cl)cc(Cl)c3)c2)CC1` [Example 68, N-((1-((3′,5′-dichloro-5-((2-(4-methylpiperazin-1-yl)pyrimidin-5-yl)oxy)-[1,1′-biphenyl]-3-yl)methyl)piperidin-4-yl)methyl)acetamide], for which the “furin enzyme pIC50” value in experiment [1] stood at 9.6. Moreover, the EC50 in experiment [2] was 12.6 nM.

Take `CP(C)(=O)CC1CCN(Cc2cc(Oc3cnc(N4CCNCC4)nc3)nc(-c3cc(Cl)cc(Cl)c3)c2)CC1` [Example 125]: the “furin enzyme pIC50” value in experiment [1] is given as 8. The EC50 in experiment [2] is 50.1 nM.

With `CC(=O)NCC1CCN(Cc2cc(Oc3ccc(N4CC[C@@H](N)[C@@H](F)C4)nc3)cc(-c3cc(Cl)cc(Cl)c3)c2)CC1` [Example 106, N-((1-((5-((6-((r/3)-4-Amino-3-fluoropiperidin-1-yl)pyridin-3-yl)oxy)-3′,5′-dichloro-[1,1′-biphenyl]-3-yl)methyl)piperidin-4-yl)methyl)acetamide, 3 hydrochloride], the “furin enzyme pIC50” value in experiment [1] was found to be 9.4. For the same molecule, the EC50 in experiment [2] was 3.16 nM.

For the molecule `CN1CCN(c2ccc(Oc3nc(-c4cc(Cl)cc(Cl)c4)cc(CN4CCC(CC(=O)O)CC4)c3F)cn2)CC1` [Example 377, 2-(1-((6-(3,5-Dichlorophenyl)-3-fluoro-2-((6-(4-methylpiperazin-1-yl)pyridin-3-yl)oxy)pyridin-4-yl)methyl)piperidin-4-yl)acetic acid, 4 hydrochloride], in experiment [1], the “furin enzyme pIC50” value was 8.6. Besides, the EC50 in experiment [2] is 25.1 nM.

`C[C@@H](CC1CCN(Cc2cc(Oc3cnc(N4CCN(C)CC4)nc3)nc(-c3cc(Cl)cc(Cl)c3)c2)CC1)C(=O)O` [Example 134]: the “furin enzyme pIC50” value in experiment [1] was 9.5. Besides, the EC50 in experiment [2] was 25.1 nM.

Regarding `CC(=O)NCC1CCN(Cc2cc(Oc3ccc(N4CCN(CC[S+](C)[O-])CC4)nc3)nc(-c3cc(Cl)cc(Cl)c3)c2)CC1` (stereo not shown) [Example 15, N-((1-((2-(3,5-Dichlorophenyl)-6-((6-(4-(2-(methylsulfinyl)ethyl)piperazin-1-yl)pyridin-3-yl)oxy)pyridin-4-yl)methyl)piperidin-4-yl)methyl)acetamide, 4 hydrochloride], the “furin enzyme pIC50” value in experiment [1] is 8.5. Besides, in experiment [2], the EC50 is 25.1 nM.

For the molecule `CC(O)CCN1CCN(c2ncc(Oc3cc(CN4CCC(CC(=O)O)CC4)cc(-c4cc(Cl)cc(Cl)c4)n3)cn2)CC1` (stereo not shown) [Example 237, 2-(1-((2-(3,5-Dichlorophenyl)-6-((2-(4-(3-hydroxybutyl)piperazin-1-yl)pyrimidin-5-yl)oxy)pyridin-4-yl)methyl)piperidin-4-yl)acetic acid], the “furin enzyme pIC50” value in experiment [1] is listed as 8.7. The EC50 in experiment [2] was 3.16 nM.

For `CNC(=O)OCC1CCN(Cc2cc(Oc3ccc(N4CCN(C[C@@H](C)O)CC4)nc3)nc(-c3cc(Cl)cc(Cl)c3)c2)CC1` [Example 305, (R)-(1-((2-(3,5-dichlorophenyl)-6-((6-(4-(2-hydroxypropyl)piperazin-1-yl)pyridin-3-yl)oxy)pyridin-4-yl)methyl)piperidin-4-yl)methyl methylcarbamate], the “furin enzyme pIC50” value in experiment [1] came to 8.7. Also, the EC50 in experiment [2] is 10 nM.

As for `NS(=O)(=O)CCC1CCN(Cc2cc(Oc3ccc(N4CCN(CCC(=O)O)CC4)nc3)nc(-c3cc(Cl)cc(Cl)c3)c2)CC1` [Example 277, 3-(4-(5-((6-(3,5-dichlorophenyl)-4-((4-(2-sulfamoylethyl)piperidin-1-yl)methyl)pyridin-2-yl)oxy)pyridin-2-yl)piperazin-1-yl)propanoic acid], the IC50 in experiment [1] was 0.0316 nM. The EC50 in experiment [2] was 50.1 nM.

On to `CN1CCN(c2ncc(Oc3cc(CN4CCC(CC(=O)O)CC4)cc(-c4cc(Cl)cc(Cl)c4)n3)cn2)CC(F)C1` (stereo not shown) [Example 147, 2-(1-((2-(3,5-dichlorophenyl)-6-((2-(6-fluoro-4-methyl-1,4-diazepan-1-yl)pyrimidin-5-yl)oxy)pyridin-4-yl)methyl)piperidin-4-yl)acetic acid], for which, in experiment [1], the IC50 is 0.631 nM. In experiment [2], the EC50 is 31.6 nM.

On to `CC(=O)NCC1CCN(Cc2cc(Oc3cnc(N4CCN(C(C)CC(=O)O)CC4)nc3)nc(-c3cc(Cl)cc(Cl)c3)c2)CC1` (stereo not shown) [Example 282, 3-(4-(5-((4-((4-(acetamidomethyl)piperidin-1-yl)methyl)-6-(3,5-dichlorophenyl)pyridin-2-yl)oxy)pyrimidin-2-yl)piperazin-1-yl)butanoic acid], for which the IC50 in experiment [1] was 0.2 nM. Also, in experiment [2], the EC50 is 7.94 nM.

For `CC(=O)NCC1CCN(Cc2cc(Oc3cnc(N4CCCNCC4)nc3)nc(-c3cc(Cl)cc(Cl)c3)c2)CC1` [Example 118, N-((1-((2-((2-(1,4-Diazepan-1-yl)pyrimidin-5-yl)oxy)-6-(3,5-dichlorophenyl)pyridin-4-yl)methyl)piperidin-4-yl)methyl)acetamide], in experiment [1], the “furin enzyme pIC50” value was determined as 8.7. In experiment [2], the EC50 is 15.8 nM.
